In patent US20050129782A1, “Use of inorganic nanoparticles to stabilize hydrogen peroxide solutions” (Alcon, Inc., priority 2003, published 2005):

Experiments:
[1] = Stability of 100 ppm H2O2 at various pHs, heated at 100° C. for 24 hours, KMnO4 titration (Example 3); type: physicochemical; settings: 60 ppm Dequest 2060 (control); 100 ppm H2O2, pH 6.5; 100° C. 24 hours vs RT
Description: The effectiveness of 50 ppm Laponite® XLG to stabilize 100 ppm H2O2 at various pH levels was evaluated.
50 ppm Laponite® XLG was formulated in a phosphate buffer (0.8655% NaCl, 0.0622% sodium phosphate dibasic, 0.0072% sodium phosphate monobasic monohydrate), along with 100 ppm hydrogen peroxide (from a 30% unstabilized solution). 100 mL samples were then adjusted to pH levels of 6.5, 7.0 and 7.5, respectively. 10 mL of each sample was then placed in a test tube, sealed with a screw cap, and heated to 100° C. for 24 hours. After heating, 5 mL of each sample was titrated with 0.002% KMnO4 and compared to the unheated sample to obtain % stability. 60 ppm of Dequest® 2060 at pH 6.5 was used as a control.

[2] = Stability of 3% hydrogen peroxide solutions with stabilizing agents, heated at 100° C. for 24 hours, KMnO4 titration (Example 1); type: physicochemical; settings: 3% H2O2, phosphate buffer pH 6.5, 100° C. 24 hours vs 25° C.
Description: 3% hydrogen peroxide solutions containing three different stabilizing agents were formulated in phosphate buffer at pH 6.5. 10 ml samples were heated in HCl-cleaned test tubes at 100° C. for 24 hours to simulate a two year shelf life. Then a 200 microliter aliquot was added to 40 ml of a 2.75% H2SO4 solution and titrated with 0.01N KMnO4.

Compound | % stability [1] | % Stability of H2O2 ([2]; stabilizer 180 ppm) | % Stability of H2O2 ([2]; stabilizer 500 ppm)
O=P(O)(O)CN(CCN(CP(=O)(O)O)CP(=O)(O)O)CCN(CP(=O)(O)O)CP(=O)(O)O [Dequest ® 2060] | 92.9% | 98.2% | 
O=C(O)CN(CCN(CC(=O)O)CC(=O)O)CC(=O)O [EDTA] |  |  | 24.8%
